From patent US20260209201A1, “TRISULFIDE COMPOUND AND CLATHRATE THEREOF” (Kyowa Pharma Chemical Co., Ltd., priority 2022, published 2026) come the findings set out here.

This data set in a line: Thermal stability test (Test Example 1): heating at 100° C. for 5 hours, residual rate by HPLC. Type of data set: physicochemical. Conditions: heated at 100° C.; for residual rate: amount before heating set at 100%. As for the experimental part: The thermal stability of (R)-α-lipoic acid, (R)-lipoic acid trisulfide, and compound (12-1) was evaluated as follows. Each compound was placed in a round-bottom flask and heated at 100° C. for 5 hours. Every hour, a sample was taken from the flask, dissolved in a methylene chloride/methanol mixture (1:1), and subjected to HPLC. The residual rate over time was calculated from the area values of each component.
In FIG. 1, the residual rate on the vertical axis was calculated from the degree of decomposition over time for each sample, with the amount before heating set at 100%. […] In addition, (R)-α-lipoic acid and (R)-lipoic acid trisulfide melted immediately after the start of heating, and insoluble by-products were formed. […] This is presumed to be due to the high melting point of compound (12-1) and suppression of intermolecular polymerization. From the above, it was confirmed that the compound or salt represented by Formula (1) has higher thermal stability than (R)-α-lipoic acid and (R)-lipoic acid trisulfide.

SMILES strings stand for the structures.

As to `O=C(O)CCCC[C@@H]1CCSSS1` [(R)-lipoic acid trisulfide], the residual rate result (after 5 hours) is “about 70%”. Moreover, the decomposition entry (at 2 hours) is “no decomposition”.
As for `O=C(O)CCCC[C@@H]1CCSS1` [(R)-α-lipoic acid], the residual rate result by setting is: (after 5 hours) “about 50%”; (at 1 hour) “below 60%”.
For the setting “after 5 hours”, `O=C(CCCC[C@@H]1CCSSS1)N1CCN(C(=O)CCCC[C@@H]2CCSSS2)CC1` [Compound (12-1)] had a residual rate of at least 95%.
